Test results taken from patent publication US20210122730A1, “GLUCOCORTICOID RECEPTOR MODULATORS” (ORIC Pharmaceuticals, Inc., priority 2017, published 2021).

These compounds were tested against T1, GR (Homo sapiens, UniProt P04150) (assay: In Vitro GR Luciferase Reporter Assay (antagonist mode, CHO-K1-GR-MMTV-Luc reporter cells)). Conditions: antagonist assay with 10 nM Dexamethasone, 18-24 hours.
T1 construct: expressed in transfected cells; host or cells: CHO-K1
T1 sequence (P04150 1-777): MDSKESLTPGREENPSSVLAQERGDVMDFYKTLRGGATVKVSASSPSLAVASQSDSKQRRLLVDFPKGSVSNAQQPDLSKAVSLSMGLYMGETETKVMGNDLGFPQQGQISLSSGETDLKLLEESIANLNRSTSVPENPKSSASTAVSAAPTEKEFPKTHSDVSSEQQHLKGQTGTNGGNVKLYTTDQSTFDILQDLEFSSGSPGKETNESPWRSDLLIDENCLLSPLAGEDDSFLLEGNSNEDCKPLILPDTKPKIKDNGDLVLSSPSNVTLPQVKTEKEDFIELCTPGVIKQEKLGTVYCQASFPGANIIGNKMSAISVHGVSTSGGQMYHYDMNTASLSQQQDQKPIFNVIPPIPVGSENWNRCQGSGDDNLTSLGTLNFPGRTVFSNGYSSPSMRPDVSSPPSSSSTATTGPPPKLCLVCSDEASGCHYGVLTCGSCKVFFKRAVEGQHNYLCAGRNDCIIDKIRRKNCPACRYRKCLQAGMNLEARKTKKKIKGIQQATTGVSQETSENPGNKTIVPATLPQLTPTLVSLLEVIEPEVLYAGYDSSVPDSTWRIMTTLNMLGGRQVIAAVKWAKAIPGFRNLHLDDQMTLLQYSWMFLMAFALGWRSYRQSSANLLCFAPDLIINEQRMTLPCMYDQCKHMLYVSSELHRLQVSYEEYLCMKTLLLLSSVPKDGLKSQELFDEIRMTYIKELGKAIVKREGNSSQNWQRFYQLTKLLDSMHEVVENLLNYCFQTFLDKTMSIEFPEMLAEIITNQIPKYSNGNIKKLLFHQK
Type: cell-based
Source text: Example A: In Vitro GR Luciferase Reporter Assay
Cell Line: CHO-K1-GR-MMTV-Luc reporter cells
Culture Media: DMEM (with phenol red)+10% FBS
Assay Media: DMEM (without phenol red)+10% CSS
Culture CHO-K1I-GR-MMTV-Luc reporter cells in 15 cm plates in Culture Media at conditions less than 90% confluence.
Prepare 200×DMSO 1:5 serial dilutions of control and test compounds in 96-well non-sterile V bottom plate in DMSO, 8serial dilutions for each compound.
Prepare 5× Assay Media diluted compound serial dilutions in 96-well non-sterile V bottom plate: Add 97.5 uL/well of Assay Media into 96-well then add 2.5 ul of 200× concentration of compounds and mix well.
Seed cells for Antagonist Assay: […] CHO-K1-GR-MMTV-Luc reporter cells were seeded in a Corning 3707 flat clear bottom 384-well white TC plate in 20 ul of Assay Media containing 12.5 nM Dexamethasone (final concentration=10 nM).
Add compounds: 5 ul of assay media diluted compounds were added to appropriate wells and followed a quick spin (1000 rpm, 10 sec) to bring media and cells to the bottom of plate. The plates were covered with SealMate film to avoid evaporation and placed in 37° C. incubator for approximately 18-24 hours.
Read plates: Equilibrate appropriate amount of Promega OneGlo luciferase reagent to room temperature. Remove the plates from incubator and add 25 uL of OneGlo reagent/well by multiple channel pipette and read the plates with Tecan F500 luminometer within 3 minutes.
The ability of the compounds disclosed herein to inhibit GR activity was quantified and the respective IC50 value was determined. Table 1and Table 2provide the cellular IC50 values of compounds disclosed herein.

IC50, ≤ 0.1 µM:
O=C(c1ccccn1)[C@]12Cc3cnn(-c4ccc(F)cc4)c3C=C1CC[C@H](S(=O)(=O)C1CCCCC1)C2 [Example 35, ((4aS,6S)-6-(cyclohexylsulfonyl)-1-(4-fluorophenyl)-1,4,5,6,7,8-hexahydro-4aH-benzo[f]indazol-4a-yl)(pyridin-2-yl)methanone]
Cc1ccnc(C(=O)[C@]23Cc4cnn(-c5ccc(F)cc5)c4C=C2CC[C@H](S(=O)(=O)c2ccccc2)C3)c1 [Example 36, ((4aS,6S)-1-(4-fluorophenyl)-6-(phenylsulfonyl)-1,4,5,6,7,8-hexahydro-4aH-benzo[f]indazol-4a-yl)(4-methylpyridin-2-yl)methanone]
O=C(c1ccccn1)[C@]12Cc3cnn(-c4ccc(F)cc4)c3C=C1CC[C@H](S(=O)(=O)c1cccc(Cl)c1)C2 [Example 37, ((4aS,6S)-6-((3-chlorophenyl)sulfonyl)-1-(4-fluorophenyl)-1,4,5,6,7,8-hexahydro-4aH-benzo[f]indazol-4a-yl)(pyridin-2-yl)methanone]
Cc1ccnc(C(=O)[C@]23Cc4cnn(-c5ccc(F)cc5)c4C=C2CC[C@@H](S(=O)(=O)c2ccccc2)C3)c1 [Example 38, ((4aS,6R)-1-(4-fluorophenyl)-6-(phenylsulfonyl)-1,4,5,6,7,8-hexahydro-4aH-benzo[f]indazol-4a-yl)(4-methylpyridin-2-yl)methanone]
Cc1ccnc(C(=O)[C@]23Cc4cnn(-c5ccc(F)cc5)c4C=C2CC[C@H](S(=O)(=O)c2cnn(C)n2)C3)c1 [Example 39, ((4aS,6S)-1-(4-fluorophenyl)-6-((2-methyl-2H-1,2,3-triazol-4-yl)sulfonyl)-1,4,5,6,7,8-hexahydro-4aH-benzo[f]indazol-4a-yl)(4-methylpyridin-2-yl)methanone]
CC(C)(C)S(=O)(=O)[C@H]1CCC2=Cc3c(cnn3-c3ccc(F)cc3)C[C@]2(C(=O)c2ccccn2)C1 [Example 40, ((4aS,6S)-6-(tert-butylsulfonyl)-1-(4-fluorophenyl)-1,4,5,6,7,8-hexahydro-4aH-benzo[f]indazol-4a-yl)(pyridin-2-yl)methanone]
O=C(c1cc(C(F)(F)F)ccn1)[C@]12Cc3cnn(-c4ccc(F)cc4)c3C=C1CC[C@H](S(=O)(=O)c1ccccn1)C2 [Example 41, ((4aS,6S)-1-(4-fluorophenyl)-6-(pyridin-2-ylsulfonyl)-1,4,5,6,7,8-hexahydro-4aH-benzo[f]indazol-4a-yl)(4-(trifluoromethyl)pyridin-2-yl)methanone]
Cc1ccc(C(=O)[C@]23Cc4cnn(-c5ccc(F)cc5)c4C=C2CC[C@H](S(=O)(=O)c2ccccn2)C3)nc1 [Example 42, ((4aS,6S)-1-(4-fluorophenyl)-6-(pyridin-2-ylsulfonyl)-1,4,5,6,7,8-hexahydro-4aH-benzo[f]indazol-4a-yl)(5-methylpyridin-2-yl)methanone]
O=C(c1ccccn1)[C@]12Cc3cnn(-c4ccc(F)cc4)c3C=C1CC[C@H](S(=O)(=O)c1cc(C(F)(F)F)ccn1)C2 [Example 43, ((4aS,6S)-1-(4-fluorophenyl)-6-((4-(trifluoromethyl)pyridin-2-yl)sulfonyl)-1,4,5,6,7,8-hexahydro-4aH-benzo[f]indazol-4a-yl)(pyridin-2-yl)methanone]
Cc1ccnc(C(=O)[C@]23Cc4cnn(-c5ccc(F)cc5)c4C=C2CC[C@H](S(=O)(=O)c2cccc(Cl)c2)C3)c1 [Example 44, ((4aS,6S)-6-((3-chlorophenyl)sulfonyl)-1-(4-fluorophenyl)-1,4,5,6,7,8-hexahydro-4aH-benzo[f]indazol-4a-yl)(4-methylpyridin-2-yl)methanone]
Cc1ccc(C(=O)[C@]23Cc4cnn(-c5ccc(F)cc5)c4C=C2CC[C@H](S(=O)(=O)c2ccccc2)C3)nc1 [Example 45, ((4aS,6S)-1-(4-fluorophenyl)-6-(phenylsulfonyl)-1,4,5,6,7,8-hexahydro-4aH-benzo[f]indazol-4a-yl)(5-methylpyridin-2-yl)methanone]
